Source: article PMC9920567, “Discovery of Bis-Imidazoline Derivatives as New CXCR4 Ligands” (Molecules, 2023)
“Also recorded” adds a separate entry of the source. Like-named read-outs stand apart in the source and are kept apart here.

Tests used:
[1] = test system: CXCR4-using HIV-1 strains; format: cell-based
CXCR4 [2] = target: T1, CXCR4 (Homo sapiens, UniProt P61073); assay: HTRF Tag-lite primary screening: red-CXCL12 binding to HEK293 cells expressing ST-CXCR4; settings: single dose 6.6 µg/mL (compound final concentration in µM in brackets), HTRF ratio of compound divided by that of AMD3100 15 µM, 20 nM red-CXCL12, hit < 1.3
Excerpt: As a starting point of this study, we set up a high-throughput screening of 6851 compounds available at the time from the CERMN (Centre d’Etude et de Recherche sur le Médicament de Normandie) chemical library for their ability to interact with CXCR4 (see Section 3.3 for details). We applied a homogeneous cell-based binding assay using Homogeneous Time-Resolved Fluorescence resonance energy transfer (HTRF) Tag-lite technology. […] We investigated the capacity of the compounds to inhibit energy transfer between the Lumi4-Tb donor and acceptor red-CXCL12, which results in a decrease in the HTRF signal (i.e., the ratio between the acceptor and donor fluorescence signals at 665 and 620 nm, respectively). […] Each 384-well plate was analyzed independently. First, using negative and positive controls, the value of the Z′ factor [52] was determined. […]
All compounds are in DMSO at a concentration of 3.3 mg/mL (average concentration of 9.85 ± 3.7 mM). […] After a 2 h incubation at 16 °C, the fluorescence emission was measured at 620 nm and 665 nm using an excitation wavelength at 343 nm on a Safire2 (Tecan, Männedorf, Switzerland) microplate reader. The HTRF ratio was defined as following: Ratio = (Fluorescence intensity at 665 nm/Fluorescence intensity at 620 nm) × 10^4. […]

CXCR4 [3] = target: T1, CXCR4; assay: HTRF dilution series assay on CXCR4 (displacement of red-CXCL12); format: binding; settings: for IC50: HEK293 ST-CXCR4 cells, red-CXCL12 20 nM, 2 h 16 °C, one-site competitive model, read-out: HTRF CXCR4-SDF1 IC50; for inhibition of HTRF at high concentrations: dilution series
Procedure: To obtain information on the structural requirements necessary for the interaction with CXCR4, we performed dilution series experiments (see Section 3.4.) by varying the concentrations of bis-imidazoline compounds in the HTRF assay used for the screening campaign (Table 1 and Figure 1A).
A three-fold serial dilution in DMSO was performed for each compound. Each concentration was tested in duplicate. For these experiments, Tag-lite CXCR4 and Tag-lite CXCR7 cell lines (5000 cells per well) were used. […] The IC50 values were determined with the Prism Software version 9 (Graph-Pad Software, San Diego, USA) using a one-site competitive binding model.
Data points are means ± SEM for three independent experiments.

endogenous CXCR4 = endogenous CXCR4 (Homo sapiens, UniProt P61073); assay: Displacement of 125I-labeled CXCL12 binding in blood mononuclear cells; settings: blood mononuclear cells from a healthy donor, data not shown
HIV-1 NL4-3 Env = assay: microbe, parasite or virus in culture; format: cell-based; settings: Human immunodeficiency virus 1, NL43, 48 h, read-out: extrapolated IC50, infection with NL4-3 Env
HIV-1 X4-28 Env = assay: microbe, parasite or virus in culture; format: cell-based; settings: Human immunodeficiency virus 1, 48 h, read-out: extrapolated IC50, infection with X4-28 Env
[4] = primary CD4+ T lymphocytes, NL4-3 and X4-28 Envs

T1 sequence (P61073 whole entry): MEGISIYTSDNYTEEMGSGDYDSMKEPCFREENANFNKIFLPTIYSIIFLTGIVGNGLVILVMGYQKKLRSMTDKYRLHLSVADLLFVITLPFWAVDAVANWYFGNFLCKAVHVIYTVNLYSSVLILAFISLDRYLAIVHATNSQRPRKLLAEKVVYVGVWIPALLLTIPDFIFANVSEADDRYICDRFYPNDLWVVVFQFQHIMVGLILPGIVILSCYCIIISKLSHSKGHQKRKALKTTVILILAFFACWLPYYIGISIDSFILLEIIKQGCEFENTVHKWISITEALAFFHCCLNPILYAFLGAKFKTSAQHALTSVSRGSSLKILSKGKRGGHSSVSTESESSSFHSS
Sequence of endogenous CXCR4 (P61073 whole entry): as above

Compound	IC50 (CXCR4 [3])	anti-HIV-1 activity [1, 4]	inhibition of HTRF at high concentrations (CXCR4 [3])	further results
c1cc(CN2CCCNCCNCCCNCC2)ccc1CN1CCCNCCNCCCNCC1 [AMD3100, reference compound]	–	–	–	anti-HIV-1 activity [1]: by far the most potent antiviral activity of all tested molecules
C(CCCNC1=NCCN1)CCNC1=NCCN1 [mr20345]	40900 ± 23000 nM	–	–	HTRF CXCR4-SDF1 Relative HTRF Ratio (CXCR4 [2]): 2.78 (13.0)
C(CCCNC1=NCCN1)CCCNC1=NCCN1 [mr20346]	1850 ± 930 nM	–	–	HTRF CXCR4-SDF1 Relative HTRF Ratio (CXCR4 [2]): 1.87 (12.6)
C(CCCCNC1=NCCN1)CCCNC1=NCCN1 [mr20347]	350 ± 90 nM	not and no effect	fully inhibited HTRF	–
C(CCCCNC1=NCCN1)CCCCNC1=NCCN1 [mr20348]	6620 ± 4310 nM	–	–	–
C(CCCCCNC1=NCCN1)CCCCNC1=NCCN1 [mr20349]	470 ± 360 nM	observed	fully inhibited HTRF	displacement of 125I-labeled CXCL12 binding (endogenous CXCR4): confirmed; IC50 (HIV-1 NL4-3 Env): 30000 nM; IC50 (HIV-1 X4-28 Env): 1100 nM
C(CCCCCCNC1=NCCN1)CCCCCNC1=NCCN1 [mr20350]	–	observed; also recorded: strongest anti-HIV-1 activity	fully inhibited HTRF	IC50 (HIV-1 NL4-3 Env): 2600 nM; IC50 (HIV-1 X4-28 Env): 720 nM
C(CCCCCNC1=NCCN1)CCCCCNC1=NCCN1 [mr34200]	15500 nM	–	–	–
